Assay results published in patent US12357665B2, “Pharmaceutical compositions and uses thereof in treating muscle atrophy” (Tzung-Yan, priority 2020, dated 2025).

Tests used:
Format in all cases: in vivo, mouse (C57BL/6J)
[1] = tested on: muscle tissues of aging mice fed with sucrose; experiment: Sucrose-induced muscle atrophy in aging mice, topical administration: histology and muscle atrophy-associated molecules (Example 1); details: once per day day 17-30, ATG-125 60 mg/kg topical, 4-OHT 1 mg/kg intraperitoneal
Protocol: (§1) Male C57BL/6J (6 and 18 months) mice were fed standard chow and water ad libitum, and housed under conditions of control temperature (26° C.) and illumination (12-hour light/dark cycle). […]
(§2) Muscle tissues were harvested immediately from the mice after they were sacrificed, followed by flash frozen in liquid nitrogen and stored at −80° C. Proteins were extracted from muscle tissues with distilled water containing protease inhibitors, and each protein concentration was determined by protein assay kits. Protein (50 μg) was analyzed on a 10% sodium dodecyl sulfate polyacrylamide gel electrophoresis (SDS-PAGE), and transferred to a polyvinylidene difluoride (PVDF) membrane. […] The optical densities of the bands were quantified using software. […]

[2] = tested on: mitochondrial biogenesis mediators (SIRT1, PGC1α, NRF1, TFAM, UCP1, UCP2, UCP3); experiment: Sucrose-induced aging mice: mitochondrial molecules in muscle tissues, mRNA and protein (Example 3); details: once per day day 17-30, ATG-125 60 mg/kg topical, 4-OHT 1 mg/kg intraperitoneal, FIGS. 5 and 6
Protocol: as §1, §2

[3] = tested on: mTOR/insulin signaling pathway (IGF1R, IRS1, PI3K, AKT, mTOR, S6K, 4EBP1); experiment: Sucrose-induced aging mice: mTOR/insulin signaling pathway in muscle tissues, Western blot (Example 2); details: once per day day 17-30, ATG-125 60 mg/kg topical, 4-OHT 1 mg/kg intraperitoneal, FIGS. 4A and 4B
Protocol: as §1, §2

[4] = tested on: mitochondrial biogenesis mediators (SIRT1, PGC1α, NRF1, TFAM, UCP1, UCP2); experiment: Sucrose and MPTP-induced aging mice: mitochondrial molecules mRNA in muscle tissues (Example 5); details: once per day day 17-30, ATG-125 60 mg/kg oral, selegiline 1 mg/kg intraperitoneal, FIG. 8
Protocol: as §1
Total RNA was isolated from 0.2 g of muscle tissues using RNA extraction kit. For qRT-PCR (real-time reverse transcription-PCR), equal amounts of RNA were retro-transcribed to cDNA using cDNA reverse transcription kit according to the manufacturer's instruction. atrogin-1, klotho, mitochondrial transcription factor A (TFAM), SIRT1, PGC1α, nuclear respiratory factor 1 (NRF1), UCP1, and UCP2 mRNA expressions were evaluated using the SYBR® Green PCR master mix. Relative expression was calculated using the ΔΔCt method with normalization to constitutive genes.
Mitochondria play an essential role in energy production, redox homeostasis, and the regulation of cell death pathways. […] Thus, whether ATG-125 solution improves the mitochondrial function in the animal having muscle atrophy was evaluated in this example, and the results were respectively depicted in FIG. 8.

[5] = tested on: muscle tissues of sucrose and MPTP-induced aging mice; experiment: Sucrose and MPTP-induced muscle atrophy in aging mice, oral administration: histology, atrogin-1 and klotho mRNA (Example 4); details: once per day day 17-30, ATG-125 60 mg/kg oral, selegiline 1 mg/kg intraperitoneal, FIG. 7
Protocol: as §1
Total RNA was isolated from 0.2 g of muscle tissues using RNA extraction kit. For qRT-PCR (real-time reverse transcription-PCR), equal amounts of RNA were retro-transcribed to cDNA using cDNA reverse transcription kit according to the manufacturer's instruction. atrogin-1, klotho, mitochondrial transcription factor A (TFAM), SIRT1, PGC1α, nuclear respiratory factor 1 (NRF1), UCP1, and UCP2 mRNA expressions were evaluated using the SYBR® Green PCR master mix. Relative expression was calculated using the ΔΔCt method with normalization to constitutive genes. […]

## 4-hydroxytamoxifen [4-OHT]
[1]; FIGS. 1 to 3
  adverse effect of sucrose on muscle tissues (protein levels of pAMPK, FOXO3a, MuRF1, lipofuscin; mRNA levels of Atrogin-1 and Klotho): significantly reversed
[1]; H&E, FIG. 1
  levels of adipocytes and degenerated myofibers in muscles: decreased
[2]
  expression levels of mitochondrial biogenesis mediators (mRNA SIRT1, PGC1α, NRF1, TFAM, UCP1, UCP2; protein SIRT1, PGC1α, UCP1, UCP2, UCP3) in muscle tissues: increased
[3]
  phosphorylated levels (activations) of mTOR/insulin signaling molecules (pIGF1R, pIRS1, pPI3K, pAKT, pmTOR, pS6K, p4EBP1): enhanced

## C#CCN(C)[C@H](C)Cc1ccccc1 [selegiline]
[4]
  expression levels of mitochondrial biogenesis mediators (mRNA SIRT1, PGC1α, NRF1, TFAM, UCP1, UCP2) in muscle tissues: increased
[5]
  adverse effect of sucrose and MPTP on muscle tissues (mRNA levels of Atrogin-1 and Klotho): significantly reversed
[5]; H&E
  levels of degenerated myofibers in muscles: decreased
